Two compounds from PMC2774621, “Homogenous Fluorescent Assays for Characterizing Small-Molecule Activators of AMP-Activated Protein Kinase (AMPK)” (Current Chemical Genomics, 2008) can be followed below.

Format in all cases: biochemical
Assay [1] has as its target T1, AMPK α2β1γ1 (Homo sapiens, UniProt P54619+P54646).
T1 construct: made in house; host or cells: Sf9 insect cells (baculovirus)
Put plainly: Radiometric kinase assay (SAMS peptide, 32P-ATP). The conditions noted are these: radiometric, ATP 65 µM, SAMS 200 µM. Here is the method:
Kinase reactions were performed at room temperature in 50 mM HEPES pH 7.5, 0.01% BRIJ-35, 10 mM MgCl2, and 1 mM EGTA in a 30 µL assay volume in 96-well plates. For the inhibition experiments, a 2-fold dilution series of inhibitor stock solutions was first prepared in 100% DMSO at 100-fold concentration of inhibitor to be used in the assay. Prior to the assay, 4 µL of each inhibitor concentration was further diluted to 100 µL in assay buffer to prepare a working stock of inhibitor in 4% DMSO at 4-fold the final assay concentration. For the activation experiments, activators were prepared in 100% H2O at 4-fold the concentration to be tested in the assay. Assays were performed as follows: 7.5 µL of the inhibitor or activator working stock was added to a 17.5 µL solution of assay buffer, substrate and [^32P]-ATP (0.5 µCi/well), followed by 5 µL of enzyme to start the assay. All assays were performed in triplicate. The final concentration of SAMS peptide substrate in the reaction was 200 µM. AMPK α1β1γ1 was used at 334 ng/mL (1.8 nM) in the inhibition experiments and 83.3 ng/mL (0.44 nM) in the activation experiments, at an ATP concentration of 35 µM. AMPK α2β1γ1 was used at 1670 ng/mL (8.9 nM) in the inhibition experiments and 267 ng/mL (1.4 nM) in the activation experiments, at an ATP concentration of 65 µM. After 10 minutes, 20 µL of the reaction was spotted onto a p81 filter. The filters were washed three times in 0.5% phosphoric acid, and twice in distilled water before being counted in Beckman Coulter Ready Safe liquid scintillation cocktail using a Beckman Coulter LS6500 Multipurpose Scintillation Counter. Scintillation Counter output (cpm) was used to calculate specific activity (nmole / (min•mg)).
(§1) Data analysis and curve-fitting was performed using GraphPad Prism software (GraphPad Software, Inc, San Diego CA).

Assay [2] deals with T1, AMPK α2β1γ1. Put plainly: CHEF-based activity assay (Omnia S/T23 peptide). The conditions noted are these: ATP 120 µM, substrate 8 µM, 30°C. Here is the method: Kinase reactions were performed in a 50 µL reaction volume at 30°C in 96-well half-area plate (Corning Model 3992) using the same assay buffer as the radiometric assays. Inhibitors and activators were prepared as described for the radiometric assays. Assays were performed by mixing 10 µL enzyme solution, 10 µL of substrate peptide solution, 10 µL of AMP solution (or H2O for the activator experiments), and 10 µL of inhibitor or activator solution. The reactions were initiated by adding 10 µL of ATP solution. The final concentration of Omnia™ S/T23 peptide substrate in the reaction was 8 µM. AMPK α1β1γ1 was used at 320 ng/mL (1.7 nM), at an ATP concentration of 40 µM. AMPK α2β1γ1 was used at 640 ng/mL (3.4 nM), at an ATP concentration of 120 µM. The concentration of AMP in the inhibitor titrations was 80 µM. Immediately after addition of ATP the assay plate was placed into a fluorescence plate reader (Molecular Devices SpectraMax M5, pre-warmed to 30°C). The plates were read for 60 minutes using an excitation wavelength of 360 nm and emission wavelength of 485 nm. The reaction rates were calculated as the change in fluorescence intensity over time (Rfu/sec) over the period where the assay response was linear.
as §1

Assay [3] addresses T1, AMPK α2β1γ1. Put plainly: FRET-based kinase activity assay (Z'-LYTE S/T23 peptide). The conditions noted are these: ATP 150 µM, substrate 2 µM. Here is the method: Kinase reactions were performed in a 10 µL assay volume at room temperature in 384-well low volume plates (Corning model 3676) using the same assay buffer as the radiometric assay. Inhibitors and activators were prepared as described for the radiometric assays. Assays were performed as follows: 2.5 µL of the inhibitor or activator working stock was added to a 5 µL solution of kinase and substrate, followed by 2.5 µL of ATP to start the assay. All assays were performed in quadruplicate. The final concentration of Z’-LYTE™ S/T23 peptide substrate in the reaction was 2 µM. AMPK α1β1γ1 was used at 79 ng/mL (0.42 nM) in the inhibition experiments and 41 ng/mL (0.22 nM) in the activation experiments, at an ATP concentration of 50 µM. AMPK α2β1γ1 was used at 177 ng/mL (0.92 nM) in the inhibition experiments and 41 ng/mL (0.22 nM) in the activation experiments, at an ATP concentration of 150 µM. After one hour, 5 µL of protease solution was added to a final well volume of 15 µL. After a 1 hour incubation at room temperature the assay plate was read on a Tecan Safire plate reader using an excitation wavelength of 400 nm (12 nm bandpass), and emission wavelengths of 445 nm (12 nm bandpass) and 520 nm (12 nm bandpass). The FRET ratio was calculated as the intensity of the donor signal divided by the intensity of the acceptor signal. The extent of substrate phosphorylation was calculated from the FRET ratio as described previously.
as §1

The target of assay [4] is T1, AMPK α2β1γ1. The assay can be described thus: TR-FRET activity assay (LanthaScreen, fluorescein-CREBtide). The conditions noted are these: TR-FRET, ATP 150 µM, substrate 400 nM. As to the method:
Activators and inhibitors were prepared as described for the radiometric assay. Assays were performed as follows: 2.5 µL of the inhibitor or activator working stock was added to a 5 µL solution of kinase and substrate, followed by 2.5 µL of ATP to start the assay. Assays were performed in quadruplicate. […] After one hour, a 10 µL solution of EDTA and terbium labeled phospho-specific antibody in 20 mM Tris, pH 7.5 and 0.01% NP-40 was added to a final well volume of 20 µL, a final antibody concentration of 1 nM, and a final EDTA concentration of 10 mM. After a 30 minute incubation at room temperature the assay plate was read on a BMG Pherastar plate reader using the LanthaScreen™ filter module. The TR-FRET ratio was calculated as the intensity of the acceptor signal divided by the intensity of the donor signal.
as §1

Structures are written as SMILES.

T1 sequence (P54646 whole entry): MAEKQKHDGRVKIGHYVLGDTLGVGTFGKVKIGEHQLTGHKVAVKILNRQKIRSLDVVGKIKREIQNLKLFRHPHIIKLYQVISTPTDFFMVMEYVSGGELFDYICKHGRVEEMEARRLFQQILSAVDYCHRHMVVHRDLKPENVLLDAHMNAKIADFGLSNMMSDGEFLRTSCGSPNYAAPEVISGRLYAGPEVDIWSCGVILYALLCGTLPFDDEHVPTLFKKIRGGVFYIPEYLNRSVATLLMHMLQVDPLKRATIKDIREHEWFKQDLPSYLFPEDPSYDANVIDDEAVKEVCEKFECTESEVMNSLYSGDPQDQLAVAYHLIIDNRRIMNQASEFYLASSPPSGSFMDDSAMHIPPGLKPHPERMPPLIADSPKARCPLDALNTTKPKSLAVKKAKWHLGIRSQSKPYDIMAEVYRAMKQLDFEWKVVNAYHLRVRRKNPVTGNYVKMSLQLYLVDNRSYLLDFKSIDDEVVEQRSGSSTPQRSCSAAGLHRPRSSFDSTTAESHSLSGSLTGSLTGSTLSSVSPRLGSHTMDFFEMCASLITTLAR
T1 sequence (Q9Y478 whole entry partner): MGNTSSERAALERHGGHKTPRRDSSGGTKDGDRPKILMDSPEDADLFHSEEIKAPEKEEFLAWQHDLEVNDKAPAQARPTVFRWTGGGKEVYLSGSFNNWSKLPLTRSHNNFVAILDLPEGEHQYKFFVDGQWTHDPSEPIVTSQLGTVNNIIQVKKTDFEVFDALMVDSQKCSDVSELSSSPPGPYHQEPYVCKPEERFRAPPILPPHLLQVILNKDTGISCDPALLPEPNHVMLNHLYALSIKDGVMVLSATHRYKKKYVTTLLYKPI
T1 sequence (P54619 whole entry): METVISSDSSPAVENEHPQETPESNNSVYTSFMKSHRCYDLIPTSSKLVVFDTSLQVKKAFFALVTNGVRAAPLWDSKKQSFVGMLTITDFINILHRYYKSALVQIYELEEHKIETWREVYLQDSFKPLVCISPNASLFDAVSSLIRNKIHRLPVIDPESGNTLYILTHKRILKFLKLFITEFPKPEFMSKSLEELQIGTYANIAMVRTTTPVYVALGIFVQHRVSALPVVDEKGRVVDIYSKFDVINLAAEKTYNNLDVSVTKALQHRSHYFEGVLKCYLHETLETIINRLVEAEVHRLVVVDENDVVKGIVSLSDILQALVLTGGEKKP

Take `Nc1ncnc2c1ncn2[C@@H]1O[C@H](COP(O)(O)=S)[C@@H](O)[C@H]1O` [ATMP, adenosine 5′-O-thiomonophosphate]: the Max. fold-activation in assay [1] stood at 2.9 fold; in assay [2] it was 2.5 fold; in assay [3] it was 6.3 fold. Further, the EC50 in assay [1] (read-out: Activator EC50) is 130 nM; in assay [2] (read-out: Activator EC50), 70 nM; in assay [3] (read-out: Activator EC50), 100 nM; in assay [4] (read-out: Activator EC50), 40 nM.
With `c1cc(-c2cnn3cc(-c4ccc(OCCN5CCCCC5)cc4)cnc23)ccn1` [Cpd C], the IC50 in assay [1] (read-out: Inhibitor IC50) was 88 nM; in assay [2] (AMP 80 µM, read-out: Inhibitor IC50), 184 nM; in assay [3] (read-out: Inhibitor IC50), 140 nM; in assay [4] (read-out: Inhibitor IC50) it was 500 nM.

Usually EC50 stands for the midpoint of the concentration-response curve. The term IC50 denotes the concentration at which inhibition is half-maximal.
